We go through 4 compounds from patent US20100160391A1, “Substituted Aminopyridines as Fluorescent Reporters for Amide Hydrolases” (priority 2006, published 2010).

What is called melting point is the temperature of the solid-liquid transition. By Km is commonly meant the concentration of substrate that gives half-maximal velocity. In general, Vmax refers to the rate approached at saturating substrate.

Marks after values point to notes of the source that are not given here.

The test system of data set [1] is amidases, microsomes from High Five cells. Put plainly: Specific activity, microsomes from High Five cells. To be noted: pH 8.0, 37° C.; NM = not measurable at the same protein concentration as other substrates.
Description: Preparation of recombinant human FAAH. Transgenic expression of the human FAAH in a baculovirus system was performed by following the method described in Nishi et al., Arch. […] The cDNA encoding human FAAH (GenBank Accession No. NM—001441) was amplified by PCR using a human liver cDNA library (Invitrogen; Carlsbad, Calif.) as a template. The primer pair was 5′-[sequence]-3′ and 5′-[sequence]-3′. BglII and EcoRI endonuclease sites (underlined) were incorporated just upstream of the start codon and downstream of the stop codon of the coding sequence of FAAH, respectively. The PCR products were cloned into a pCR2.1 vector (Invitrogen) and the nucleotide sequence was verified by DNA sequencing. The cDNA fragments were then excised and directionally ligated to the BglII and EcoRI sites of the baculovirus transfer vector pAcUW21 (Lopez-Ferber et al., Baculovirus transfer vectors, in “Baculovirus Expression Protocols,” Richardson (Ed.), pp 25-63, Humana Press, Totowa, N.J., 1995). Recombinant baculoviruses harboring the human FAAH gene, Ac-hFAAH, were generated by co-transfection of Spodoptera frugiperda-derived Sf21 cells with the recombinant transfer vector plasmid and Bsu36I-cleaved BacPAK6 viral DNA (Clontech Laboratories; Mountain View, Calif.) as described in O'Reilly et al., Baculovirus Expression Vectors: A Laboratory Manual, Oxford University Press, New York, 1992. Trichoplusia ni-derived High Five cells (1×10^6 cells/ml) were inoculated with a high titer of Ac-hFAAH. At 72 hours post-infection, the infected cells were harvested by centrifugation at 2,000×g for 20 min at 4° C. and suspended in 50 mM Tris-HCl (pH 8.0) containing 150 mM NaCl, 1 mM EDTA, 1 μM pepstatin, 100 μM leupeptin, and 0.1 mg/ml aprotinin. The cell suspension was then homogenized using a Polytron homogenizer and centrifuged at 10,000×g for 20 min at 4° C. […]
Comparison of the lowest detection limits of protein concentration of FAAH toward colorimetric and fluorescent substrates. […] The lowest detection limits of microsomal fatty acid amide hydrolase (FAAH) by substrates were determined by the fact that the signal at 10 min after kinetic measurements are equal to or over three times the noise or basal line at 0 min. Colorimetric substrate (16) assays were performed in clear 96-well microtititer plates using an absorbance wavelength at 382 nm. The fluorescent substrates containing 5-amino-2-methoxypyridine (e.g., 10, 13) were measured at an excitation wavelength (302 nm), emission wavelength (396 nm), and auto cutoff wavelength (325 nm). Similarly, the fluorescent substrates containing 5-amino-2-methoxy-6-methylpyridine (e.g., 11, 14, and 17) were measured at an excitation wavelength (304 nm), emission wavelength (392 nm), and an auto cutoff wavelength of 325 nm. […]
Data set [2] concerns the target T1, microsomal fatty acid amide hydrolase (FAAH) (Homo sapiens, UniProt O00519).
T1 construct: made in house; host or cells: Trichoplusia ni High Five cells infected with recombinant baculovirus Ac-hFAAH; microsomal fraction
T1 sequence (O00519 1-579): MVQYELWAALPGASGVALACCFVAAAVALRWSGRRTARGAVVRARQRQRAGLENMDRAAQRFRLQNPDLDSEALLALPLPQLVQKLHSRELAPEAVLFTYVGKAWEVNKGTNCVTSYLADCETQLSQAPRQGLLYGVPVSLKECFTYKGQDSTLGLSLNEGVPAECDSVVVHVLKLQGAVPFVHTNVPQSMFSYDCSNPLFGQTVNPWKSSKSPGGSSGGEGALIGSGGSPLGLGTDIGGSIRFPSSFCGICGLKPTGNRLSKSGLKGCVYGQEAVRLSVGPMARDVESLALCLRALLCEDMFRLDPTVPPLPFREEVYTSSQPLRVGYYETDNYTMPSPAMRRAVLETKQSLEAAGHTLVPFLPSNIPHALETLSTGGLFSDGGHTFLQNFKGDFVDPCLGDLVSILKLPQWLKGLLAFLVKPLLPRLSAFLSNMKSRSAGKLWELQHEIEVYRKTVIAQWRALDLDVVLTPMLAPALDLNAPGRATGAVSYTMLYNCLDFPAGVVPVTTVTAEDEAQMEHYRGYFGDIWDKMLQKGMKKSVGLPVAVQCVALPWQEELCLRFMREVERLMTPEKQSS
Put plainly: Lowest detection limits of microsomal FAAH toward colorimetric and fluorescent substrates. To be noted: for base line, Average: 0 min; for signal, Average: 10 min. In kind it is biochemical. On the procedure:
(§1) Preparation of recombinant human FAAH. Transgenic expression of the human FAAH in a baculovirus system was performed by following the method described in Nishi et al., Arch. Biochem. Biophys., 445:115-123 (2006). The cDNA encoding human FAAH (GenBank Accession No. NM_001441) was amplified by PCR using a human liver cDNA library (Invitrogen; Carlsbad, Calif.) as a template. The primer pair was 5′-[…]-3′ and 5′-[…]-3′. BglII and EcoRI endonuclease sites (underlined) were incorporated just upstream of the start codon and downstream of the stop codon of the coding sequence of FAAH, respectively. The PCR products were cloned into a pCR2.1 vector (Invitrogen) and the nucleotide sequence was verified by DNA sequencing. The cDNA fragments were then excised and directionally ligated to the BglII and EcoRI sites of the baculovirus transfer vector pAcUW21 (Lopez-Ferber et al., Baculovirus transfer vectors, in “Baculovirus Expression Protocols,” Richardson (Ed.), pp 25-63, Humana Press, Totowa, N.J., 1995). Recombinant baculoviruses harboring the human FAAH gene, Ac-hFAAH, were generated by co-transfection of Spodoptera frugiperda-derived Sf21 cells with the recombinant transfer vector plasmid and Bsu36I-cleaved BacPAK6 viral DNA (Clontech Laboratories; Mountain View, Calif.) as described in O'Reilly et al., Baculovirus Expression Vectors: A Laboratory Manual, Oxford University Press, New York, 1992. Trichoplusia ni-derived High Five cells (1×10^6 cells/ml) were inoculated with a high titer of Ac-hFAAH. At 72 hours post-infection, the infected cells were harvested by centrifugation at 2,000×g for 20 min at 4° C. and suspended in 50 mM Tris-HCl (pH 8.0) containing 150 mM NaCl, 1 mM EDTA, 1 μM pepstatin, 100 μM leupeptin, and 0.1 mg/ml aprotinin. The cell suspension was then homogenized using a Polytron homogenizer and centrifuged at 10,000×g for 20 min at 4° C. The microsomal fraction was collected by ultracentrifugation of the supernatant at 100,000×g for 60 min at 4° C. The pellet was resuspended in 20 mM Tris-HCl (pH 8.0) containing 10% (w/v) glycerol and 1% (w/v) Triton-X 100 and stored at −80° C. until use.
(§2) Comparison of the lowest detection limits of protein concentration of FAAH toward colorimetric and fluorescent substrates. In general, all assays were performed in 96-well styrene flat-bottom microtiter plates with a Spectra Max M2 spectrophotometer at 37° C. for […]. The total volume of each well was 201 μl consisting of 0.1 M sodium phosphate buffer (pH 8.0) (190 μl) containing 1% glycerol and 0.1% Triton-X 100, stock or diluted protein solution (10 μl), and the substrate solution (1 μl) in ethanol (final concentration 200 μM for 10, 11, 13 or 14) or in DMSO (final concentration 25 μM for 12, 15, or 16; 50 μM for 17). The lowest detection limits of microsomal fatty acid amide hydrolase (FAAH) by substrates were determined by the fact that the signal at 10 min after kinetic measurements are equal to or over three times the noise or basal line at 0 min. Colorimetric substrate (16) assays were performed in clear 96-well microtititer plates using an absorbance wavelength at 382 nm. The fluorescent substrates containing 5-amino-2-methoxypyridine (e.g., 10, 13) were measured at an excitation wavelength (302 nm), emission wavelength (396 nm), and auto cutoff wavelength (325 nm). Similarly, the fluorescent substrates containing 5-amino-2-methoxy-6-methylpyridine (e.g., 11, 14, and 17) were measured at an excitation wavelength (304 nm), emission wavelength (392 nm), and an auto cutoff wavelength of 325 nm. In addition, an excitation wavelength (366 nm), emission wavelength (496 nm), and auto cutoff wavelength (495 nm) were used for the substrates (e.g., 12 and 15) containing 7-amino-4-trifluoromethyl coumarin.

The target in data set [3] is T2, human FAAH, microsomes from FAAH cells (Homo sapiens, UniProt O00519).
T2 construct: made in house; host or cells: Trichoplusia ni High Five cells infected with recombinant baculovirus Ac-hFAAH; microsomal fraction
T2 sequence (O00519 1-579): T1 sequence (O00519 1-579)
Put plainly: Specific activity, microsomes from FAAH cells. In kind it is biochemical. On the procedure:
as §1, §2
Specific activity determination. The assays for specific activities were performed as described above for the sensitivity assay. […]

In data set [4] the target is T3, fatty acid amide hydrolase (FAAH) (Homo sapiens, UniProt O00519).
T3 construct: made in house; host or cells: Trichoplusia ni High Five cells infected with recombinant baculovirus Ac-hFAAH; microsomal fraction
T3 sequence (O00519 1-579): T1 sequence (O00519 1-579)
Put plainly: Kinetic study of FAAH toward substrates. Format: biochemical. As for the experimental part:
as §1
Kinetic study. The kinetic assays were also performed as described above for the sensitivity assay. Briefly, a total volume of 201 μl contained 0.1 M sodium phosphate buffer (pH 8.0) (190 μl) with 1% glycerol and 0.1% Triton-X 100, protein solution (10 μl), and substrate solution (1 μl). The protein content was 0.67 μg per well (201 μl). The concentration of substrate (13) in DMSO was 200, 100, 50, 25, 12.5, 6.25, 3.13, 1.56, or 0.78 μM. Similarly, the concentration of substrate (17) in DMSO was 100, 50, 25, 12.5, 6.25, 3.13, 1.56, 0.78, or 0.39 μM. Four replicates were applied for each concentration. Reported kinetic data (km and Vmax) were analyzed by the SigmaPlot Enzyme Kinetics software (2001) using the Michaelis-Menten equation for all concentrations.

Where [5] appears, read: protein 0.11 (13), 0.67 (14), 100 (15), 0.5 (17) μg/well, 200 μM (13),(14), 25 μM (15), 50 μM (17).
[6] abbreviates: FAAH sensitivity assay, Table 2.
[7] abbreviates: absorbance 382 nm, protein 100 μg/well, 25 μM.
[8] abbreviates: pH 8.0, 37° C., 0.67 μg protein per well, Michaelis-Menten.

With `COc1ccc(NC(C)=O)cn1` [Compound 10, N-(6-methoxypyridin-3-yl) acetamide], the “Specific activity, Microsomes from High Five cells” value in data set [1] is listed as 56 ± 2 pmol/min/mg protein.
For `CCCCCCCC(=O)Nc1ccc2c(C(F)(F)F)cc(=O)oc2c1` [Compound 15, N-(4-(trifluoromethyl)-2-oxo-2H-chromen-7-yl) octanamide], the melting point lay within 136.6 to 137.1 °C. Further, in data set [2] (setting [5]), the “base line, Average” value is listed as 132 RFU and the “signal, Average” value came out at 161 RFU. For the same compound, in data set [2] (setting [6]), the “times less sensitive than substrate (13)” value is given as “at least 900 times” and the “times less sensitive than substrate (14)” value is recorded as at least 150 times.
Compound `CCCCCCCC(=O)Nc1ccc([N+](=O)[O-])cc1` [Compound 16, N-(4-nitrophenyl) octanamide] came in with a melting point of 80.9 to 81.6 °C. In data set [2] (setting [7]), the “base line, Average” value is 0.16 OD and the “signal, Average” value stood at 0.18 OD.
As for `CCCCC/C=C\C/C=C\C/C=C\C/C=C\CCCC(=O)Nc1ccc(OC)nc1` [Compound 17], the “enhancement of activity, microsomes from FAAH-expressing cells compared with High Five cells” value in data set [3] is 4180 times. Moreover, in data set [3] (pH 8), the “Specific activity, Microsomes from FAAH cells” value was found to be 23.5 ± 0.7 nmol/min/mg protein. Also, the “Specific activity, Microsomes from High Five cells” value in data set [1] was 5.62 ± 0.67 pmol/min/mg protein. Further, the Selectivity ratio in data set [4] (Vmax/Km of substrate over that of oleamide (5.5 × 10^−2)) is given as 54.5. In data set [4] (setting [8]), the Km worked out at 12.5 µM and the Vmax was determined as 36.7 nmol/min/mg. In addition, in data set [2] (setting [5]), the “base line, Average” value is given as 148 RFU and the “signal, Average” value is on record as 559* RFU. Further, the “Protein, lowest detection limit of microsomal FAAH (signal at 10 min ≥ three times base line)” value in data set [2] (pH 8) is given as 0.5 μg/200 μ′. The “lowest detection limit of protein” value in data set [2] (signal at 10 min equal to three times base line) was determined as 2.5 μg protein/ml.
